Reference: paper PMC5573416, “Inhibiting mycobacterial tryptophan synthase by targeting the inter-subunit interface” (Scientific Reports, 2017)

Key:
[1] = target: T1, Mtb tryptophan synthase (TrpA and TrpB-F188L) (Mycobacterium tuberculosis, UniProt P9WFX9+P9WFY1, F199L); assay type: biochemical
[2] = target: T1, Mtb tryptophan synthase (TrpA and TrpB-F188L); assay type: biochemical; remark: listed apart in the source

| Structure (SMILES) | L-tryptophan synthesis in presence of inhibitor (TLC) [1] | L-tryptophan produced in presence of inhibitor (GF-HPLC) [2] |
| --- | --- | --- |
| CNS(=O)(=O)c1ccc2c(c1)CCN2C(=O)c1ccccc1F [Compound 2] | relatively the same amount of tryptophan |  |
| CNS(=O)(=O)c1ccc2c(c1)CCN2C(=O)c1ccc(C)s1 [Compound 3] |  | L-tryptophan was produced |
